pEC50: −log10 of the molar value. Entries after “also recorded” stand apart in the source; their conditions may differ.
What was measured:
[1] = Pharmacokinetic attributes (no method given); settings: in vivo
P. falciparum = P. falciparum asexual blood-stage growth inhibition (LDH or SYBR Green flow cytometry); assay type: cell-based, Plasmodium falciparum; settings: Plasmodium falciparum, 3D7, 3D7 parasite line, asexual blood stage; read-out: EC50, inhibition of P. falciparum growth
Experimental: For High Throughput Screening (HTS) of compounds we used the lactate dehydrogenase (LDH) assay to detect parasitemia ([Makler et al., 1993], [Oduola et al., 1997]) formatted in a 384 well assay using an Echo555 (Labcyte). The P. falciparum assay was conducted with minor modifications ([Gamo et al., 2010]). Briefly, an inoculum of parasitized red blood cells at 0.7% parasitemia and 2% hematocrit in RPMI-1640, 5% AlbuMAX, 2% d-sucrose, 0.3% glutamine and 150 μM hypoxanthine was used for the assay. Assay plates (Greiner #781098, 384 well, white, tissue culture treated) were prepared by dispensing 1 μl of compound from master plates at 20 μM (10% DMSO stock) into 9ul pre-dispensed growth media in each well. The parasite inoculum (30 μl) was dispensed into plates containing compounds using a Multidrop Combi dispenser (Thermo Scientific). Final assay volume was 40 μl and final compound concentration was 500 nM. The positive growth control was 0.25% DMSO and the negative growth control was 100 nM chloroquine. Plates were incubated at 37 °C for 72 h in an atmosphere of […]. Following 72 h growth, plates were sealed with parafilm and frozen at −80 °C overnight. Plates were thawed at room temperature for at least 4 h prior to LDH activity being measured. 45 μl of fresh LDH reaction mix (174 mM sodium l-lactate, 214 μM 3-acetyl pyridine adenine dinucleotide (APAD), 270 μM Nitro Blue tetrazolium chloride (NBT), 4.35 U ml-1 diaphorase, 0.7% Tween 20, 100 mM Tris-HCl pH 7.5) was dispensed into each well using a Multidrop Combi dispenser. Plates were shaken to ensure mixing and absorbance at 650 nm was measured in an EnVision (PerkinElmer) plate reader after 30 min of incubation at room temperature. Data were normalized to percent growth inhibition using positive and negative controls and analyzed using Dotmatics 5.3 and Spotfire 7.11.1 (Tibco) software.
All wells were backfilled with DMSO to 45 nL such that this remained constant (0.1% DMSO). The positive growth control was 0.1% DMSO and the negative growth control was 100 nM chloroquine. Parasite inoculum (40 μl) was dispensed into plates containing compounds as described above. All other culture and lactate dehydrogenase (LDH) reaction methods are as described previously ([Makler et al., 1993], [Oduola et al., 1997]).
After 72 h incubation at 37°C each well was fixed at room temperature for 30 min with 50 μL of 0.25% glutaraldehyde (ProSciTech) diluted in PBS. Following centrifugation at 1200 rpm for 1 min, supernatants were discarded and parasites were stained with 50 μL of 5X SYBR Green (Invitrogen) diluted in PBS. 50,000 cells were counted by flow cytometry using a Cell Lab Quanta SC – MPL Flow Cytometer (Beckman Coulter) ([Bacon et al., 2007]). Growth was expressed as a percentage of the parasitemia obtained using a vehicle control. All samples were tested in triplicate. EC50 values were determined using GraphPad Prism.

P. berghei liver stages = assay: In vitro analysis of P. berghei liver parasites in HepG2 cells; assay type: cell-based, Plasmodium berghei; settings: 100 nM from 24 hpi
Experimental: To infect cells, freshly isolated PbmCherryLuci salivary gland sporozoites were resuspended in complete medium and 10^4 sporozoites added to each well (MOI 0.34) before spinoculation at 500 x g for 3 min. Sporozoites were allowed to infect cells for 3 h before washing with complete medium. […] The compound containing medium was changed the next morning before 48 hpi to prevent removal of detached cells and merosomes in the supernatant at later time points ([Sturm et al., 2006]). To measure inhibition of parasitised cell detachment in the treated cultures, each well was imaged for mCherry at 20x magnification using an Opera Phenix High Content Screening System (PerkinElmer) at 48 hpi (live cell microscopy) and again at 65 hpi following fixation with 4% formalin in PBS, and the number of mCherry^+ parasites counted using the Columbus Image Data Storage and Analysis System (PerkinElmer). Cell detachment was calculated as the percent of parasites lost from the monolayer between 48 – 65 hpi. The culture supernatant containing merosomes and detached parasitised cells from each well was collected at 65 hpi, washed once in complete media by centrifugation at 500 x g for 3 min, then i.v. injected into individual male Swiss mice. Daily Giemsa stained thin blood smears were monitored for patent blood infection as described previously.
Following fixation at 65 hpi, infected hepatocyte monolayers were blocked and permeabilized in PBS containing 1% BSA and 0.1% Triton X-100 (blocking buffer) for 1 h before incubation with polyclonal Goat-anti-PbUIS4 (1:500) and Rabbit-anti-PyMSP1_19 antiserum (1:200) for 1 h. After 3 washes in PBS to remove primary antibodies, wells were incubated sequentially with secondary antibodies recognizing Goat IgG (Alexa Fluor 488; 1:500) and then Rabbit IgG (Alexa Fluor 633; 1:500) for 1 h, separated by 3 washes with PBS. All antibody incubations were performed in blocking buffer at room temperature protected from light, and 2 μg/mL DAPI was added to the last incubation with secondary antibody to stain DNA. The center of each well was then imaged across a 12 μm z stack at 63x magnification using an Opera Phenix (PerkinElmer) for the above fluorochromes as well as mCherry to reveal parasite cytoplasm. Data was transferred to Columbus (PerkinElmer) and at least 70 parasites per condition were then manually scored based on a previously described staging system ([Graewe et al., 2011]). […] More extensive membrane invaginations surrounding individual nuclei with well segmented parasite cytoplasm and intact UIS4 staining were scored as ‘merozoite’ stage. ‘Egressed’ parasites were classified as either well segmented merozoite stages with evidence for PVM breakdown, or largely intact PVM vacuoles in which significant loss of parasite material was evident (Figure S6).

| SMILES | pharmacokinetic attributes [1] | pEC50 (P. falciparum) | detachment of parasitized HepG2 cells at 65 hpi (P. berghei liver stages) | egress of exoerythrocytic merozoites from hepatocytes in vitro (P. berghei liver stages) | liver parasite size and maturity at 65 hpi (P. berghei liver stages) | merozoite formation by liver stages (P. berghei liver stages) | liver parasite number or size at 48 hpi (P. berghei liver stages; HepG2 cells) |
| --- | --- | --- | --- | --- | --- | --- | --- |
| CC(NC(=O)c1cccc(C(c2ccccc2)N2C(=N)NC(C)(C(C)C)CC2=O)c1)c1ccccc1 (racemic) [WM4] | did not have desirable pharmacokinetic attributes |  |  |  |  |  |  |
| CCC1(CC)CC(=O)N([C@@H]2CCOc3ccc(C(=O)N[C@H]4CC(C)(C)Oc5ccccc54)cc32)C(=N)N1 [WM382] |  | 9.22 | decrease in detachment; also recorded: reduced detachment of parasitized HepG2 cells | incomplete inhibitory effect; also recorded: reduced rates | increased size of parasites; also recorded: accumulation of larger, mature liver parasites containing merozoites without PVM degradation | normal | did not reduce parasite number or size |
